In patent publication US8969026B2, “Polymeric reverse micelles as selective extraction agents and related methods of MALDI-MS analysis” (University of Massachusetts, priority 2007, dated 2015):
No end group written: not given here.

Key:
[1] = Liquid-liquid extraction of pI markers by reverse micelles of homopolymer 3 in toluene, fluorescence of the aqueous phase; format: physicochemical; details: for extraction efficiency: aqueous pH 6.0, reverse micelles present in the toluene phase
Excerpt: The polymeric reverse micelle-like nanoassemblies have carboxylate groups in their interiors; therefore, positively charged pI markers are expected to be extracted. Upon extraction, the concentrations of the pI markers left in the aqueous phase were quantitatively determined by fluorescence spectroscopy. Analysis of the organic phase was difficult because the fluorescence spectrum of the polymer is very broad in this phase, and in many cases overlaps with the signal from the pI markers. As an example of the data from the aqueous solution, the fluorescence spectra of pI marker 2, before (solid line) and after extraction (dashed line), are shown in FIG. 3. […] The concentration of the pI marker remaining in the aqueous phase can be quantified, and in this example, it is determined that 46% of pI marker 2 remains, which means that 54% of it is extracted into the organic phase when the aqueous solution pH is 1.9. It is not surprising that most of this compound is extracted under these conditions. This marker hag a pI value of 3.0, and at an aqueous solution pH of 1.9, most of this compound is positively charged and therefore interacts favorably with the negatively-charged interior of the polymeric reverse micelles.
(§1) A two-phase liquid-liquid extraction protocol that was previously developed was employed. […] The top (organic) layer was removed and the bottom (aqueous) layer was analyzed by fluorescence spectroscopy. […]
(§2) The amount of pI marker left in the bottom (aqueous) layer after extraction was determined on a Photon Technology International fluorometer (Ontario, Canada). Analysis of the organic phase was difficult because the fluorescence spectrum of the polymer in this phase was very broad, and in many cases overlapped with the signal from the pI markers. The excitation and emission wavelengths for each pI marker were chosen to maximize the fluorescence signal. […] For most of the pI markers, the fluorescence intensity was very low under more acidic conditions, making it difficult to collect data at these lower pHs. The fluorescence intensity of the aqueous phase after a given extraction was measured, and in each case the fluorescence intensity was used to determine the concentration of the pI marker remaining in the aqueous phase after the extraction. The amount of pI marker that was extracted by the reverse micelles was then calculated by subtracting the remaining aqueous phase concentration from the initial concentration (1×10^−6 M). The fluorescence measurements were repeated at least 3 times for each extracted sample and the average values are reported.

[2] = Control extraction of pI markers into toluene alone (no polymer); format: physicochemical; details: no reverse micelles / absence of polymer; pH independent
Method: Previously, it was shown for a series of peptides that charge complementarity exerts an important influence on the extraction process with these amphiphilic homopolymers. (See, M. Y. Combariza, E. N. Savariar, D. R. Vutukuri, S. Thayumanavan and R. W. Vachet, Anal. Chem. 2007, 79, 7124-7130.) Here, the importance of two other factors—hydrophobicity and aqueous solution pH—are assessed. Hydrophobicity might affect the extraction efficiency to some degree due to the toluene phase that surrounds the reverse micelles and the hydrocarbon functionality on the periphery of the reverse micelles. In order to investigate this effect, extractions of pI markers with different hydrophobicities were performed. As an example of the effect of hydrophobicity, the results from the extraction of two pI markers (4 and 7) at an aqueous phase pH of 6.0 are shown in FIG. 4. […]
as §1
as §2, with “The amount of pI marker that was extracted by the reverse micelles was then calculated by subtracting the remaining aqueous phase concentration from the initial concentration (1×10^−6 M). The fluorescence measurements were repeated at least 3 times for each extracted sample and the average values are reported.” left out

[3] = fluorescent pI markers, cited from earlier work
[4] = pH-dependent biphasic extraction of a peptide mixture with inverse micelles of polymer 1 in toluene, MALDI-MS ion abundance ratio; format: physicochemical; details: polymer 1 inverse micelles in toluene, K = Iorg/Iaq, [M+H]+ signal, [M+K]+ for spinorphin and β-amyloid, at least 4 replicates; for Ion abundance ratio (K ± sM) pH 4.0: aqueous pH 4.0; for Ion abundance ratio (K ± sM) pH 7.1: aqueous pH 7.1; for Ion abundance ratio (K ± sM) pH 9.0: aqueous pH 9.0
Excerpt: The net charge within the inverse micelle of 1 is negative, affording a selective extraction of positively-charged peptides. In a typical experiment, a toluene solution containing 1 was mixed with an aqueous solution containing a mixture of peptides. After vortexing this mixture, the organic layer was separated and analyzed using MALDI-MS. […] Because the aqueous solution was buffered at a pH of 7.1, peptides with pI values above 7.1 were expected to be sequestered into the interior of the inverse micelles, while peptides with pI values below 7.1 would be mostly excluded based on Coulombic repulsion.
The ion abundance ratio is related to the extraction capacity of the polymer, and can be defined as the ratio of the MALDI ion abundance of the peptide in the organic phase that contains the inverse micelles (Iorg) to the ion abundance of the peptide remaining in the aqueous phase (Iaq) (K=Iorg/Iaq). These experiments were performed with the hypothesis that the extraction would be based on electrostatic interaction between the polymer and the peptide. To test this premise further, two control experiments were carried out. […] Therefore, a two-phase extraction experiment was done in the absence of homopolymer 1, and no peptide extraction into the organic phase was observed. Second, peptide extractions using a polymer without the negatively-charged functionality were performed. Polymer 2 contains charge-neutral pentaethyleneglycol functionalities instead of the carboxylic acid moieties. […] These two results are consistent with the hypothesis that the extraction is based on electrostatics.
Without limitation to any one theory or mode of operation, the pH of the overall aqueous solution is also likely to dictate the pH of the hydrated interiors of the inverse micelle where the binding takes place. Accordingly, extractions at three different pHs: 4.0, 7.1, and 9.0 were carried out; the results of these experiments are listed in Table 1. […] The results from experiments at pH 7.1 and 9.0 further support this idea. It should be noted that when the experiment is carried out at pH 9.0, the peptide with a pI of 7.7 is extracted to some extent. Such a result could be attributed to errors associated with aqueous solution pH measuring or to errors in the peptide pI calculation. Nonetheless, the tunability is still significant and therefore is a very useful result.
A Bruker Reflex III time-of-flight mass spectrometer was used to perform MALDI-MS analysis. The mass spectrometer is equipped with a 337-nm nitrogen laser, a 1.0 m flight tube, and a stainless steel sample target. All mass spectra were acquired in reflectron mode using a voltage of 16 kV. All reported spectra represent an average of 70 shots acquired at 30% laser power. The accelerating voltage was set to 20 kV.
A typical biphasic extraction procedure involves mixing 200 μL of a toluene solution of homopolymer 1 or 2 (1×10^−4 M) with 1 mL of an aqueous solution of peptide(s) that was buffered to pH ˜7.0 with 50 mM Tris/TrisHCl. The mixture is vortexed for 10 to 120 minutes and centrifuged at 12000 rpm for 30-40 minutes to break the resulting emulsion and separate the organic and aqueous layers. The top (organic) layer is then recovered and dried to obtain a solid residue. The residue is redissolved into 10 μL of THF and sonicated for 10 seconds to promote solubilization. Finally, 20 μL of an α-CHCA matrix solution (0.16 Min 60:40:0.3% THF:H2O:TFA) are added to the sample for a final volume of 30 μL. For MALDI-MS analysis the samples are applied to the target using the dried-droplet method, where 1 μL of the sample/matrix mixture is spotted on a stainless-steel target, and the solvent is evaporated at room temperature. The residual aqueous phase (˜1 mL) after extraction is also examined by MALDI-MS. […]

[5] = as above; format: physicochemical; details: extraction at pH 7.1 followed by extraction at pH 5.5, organic phase
[6] = Extraction of a peptide mixture by positively charged imidazole polymer 4 at pH 4.5, MALDI-MS; format: physicochemical; details: each peptide 1.0×10^−6 M
Excerpt: Extraction of peptide mixture by positively charged polymer. Illustrating other embodiments of this invention, positively-charged polymers extract peptides with pI values below the aqueous solution pH. Without limitation, polymers with moieties comprising a positively charged nitrogenous group can be used with good effect. Representative of such embodiments, an imidazole-substituted polymer, 4, shown below, can be prepared using straight forward synthetic techniques of the sort described herein, and/or as are well-known to those skilled in the art.
At pH 4.5, kinetensin and angiotensin are positively-charged because the pH is below their pI values. […] FIG. 12C provides a mass spectrum of the aqueous phase after extraction at pH 4.5. The positively-charged peptides remain in the aqueous phase after extraction.

[7] = aqueous solution pH 1.9, polymer 3 reverse micelles in toluene

Row | Compound | percentage extracted into toluene alone [2] | pI [3] | Ion abundance ratio (K ± sM) pH 4.0 [4] | Ion abundance ratio (K ± sM) pH 7.1 [4] | Ion abundance ratio (K ± sM) pH 9.0 [4] | extraction in the second step of the sequential extraction [5] | extraction efficiency [1] [%] | also measured
1 | O=C(O)c1cc(Cl)ccc1NCCO [pI marker 2] | about 6.6±0.6% | 3.0 | – | – | – | – | – | percentage extracted into the organic phase [1, 7]: 54%; percentage of pI marker remaining in the aqueous phase after extraction [1, 7]: 46%
2 | LVVYPWT [Spinorphin, LVVYPWT] | – | – | 36 ± 12 | 2.0 ± 1.0 | 1.0 ± 0.5 | extracted into the organic layer | – | –
3 | O=C(CNc1ccccc1C(=O)O)NCCN1CCOCC1 [pI marker 4] | 8.4±0.6% | 5.1 | – | – | – | – | 21.5±0.4 | –
4 | EDVGSNKGAIIGLM (listed as Homo sapiens) [β-Amyloid, human peptide purchased from American Peptide Company] | – | – | 17 ± 6 | 0.4 ± 0.2 | 0.10 ± 0.07 | a small amount of β-amyloid was extracted | – | –
5 | CN(C)CCCNC(=O)c1cc(Cl)ccc1O [pI marker 7] | 5.9±0.3% | 8.1 | – | – | – | – | 70±1.6 | Pka1 [3]: 6.80; Pka ([3]; second pKa column): 9.30
6 | SSEVAGEGDGDSMGHEDLY (listed as Homo sapiens) [Preproenkephalin, human peptide purchased from American Peptide Company] | – | – | 2.2 ± 0.9 | 0.4 ± 0.1 | 0.12 ± 0.04 | – | – | phase distribution after extraction [6]: a small percentage of the preproenkephalin is believed to remain in the aqueous phase
